Measurements taken from US20130059783A1, “COMPOSITIONS AND METHODS FOR EXPANDING BFU-E CELLS” (priority 2010, published 2013).

Columns and labels:
Type in all cases: cell-based, mouse
BFU-E cells = assay: Single BFU-E cell culture in SFELE medium
Description: FIGS. 1A-1F. Glucocorticoids stimulate stress erythropoiesis by enhancing erythroblast output predominantly from BFU-E progenitors. […] Error bars show one standard deviation. […] Error bars show one standard deviation. […] Shown is the fraction of c-kit+ cells after 72 hours. […] Cell numbers in each clone were estimated under the microscope on Day 8. 80% of sorted BFU-E cells form more than 100 daughter cells in erythroid expansion culture.
The “BFU-E” cell population that contains the GC-responsive cells, while highly enriched for BFU-Es, is a heterogeneous mix of erythroid progenitors. In order to determine the effect of GCs at the single cell level, we performed single “BFU-E” cell culture experiments (FIG. 1E).

CFU-E cells = assay: Colony forming assays of sorted CFU-E fractions (Table S2)
Source text: Separation of BFU-E and CFU-E cells by expression of CD71, CD24a or both CD71 and CD24a. C-kit positive BFU-E and CFU-E cells were sorted from FLEP cells based on expression of CD71, CD24a or both CD71 and CD24a. In all experiments the BFU-E fraction was the subset of c-kit^positive FLEP cells with the 10% lowest expression of CD71 and/or CD24a, while the CFU-E fraction was the subset with 20% highest expression of CD71 and/or CD24a. Sorted BFU-E and CFU-E populations were subjected to colony forming assays under two different conditions.
The potential of the sorted cells to form large BFU-E, small BFU-E, CFU-G/M/Mk, and CFU-GEMM colonies (±standard deviation) was determined by a second assay in methyl cellulose containing 10U Epo, 20 nM IL-3, 20 nM IL-6 and 50 nM SCF per mL, and was scored at day 8-9. […] To determine the effect of DMOG, colony assays of sorted BFU-E (CD71 and CD24a^10% low) cells were also performed in the presence of 333 μM DMOG.
Colonies were scored after 3 days. […] The number of hemoglobinized early BFU-E and late BFU-E colonies was determined after 8-9 days following staining with 2,7-Diaminofluorene (Sigma Chemical, St. Louis, Mo.).

[1] = system: miRNA expression in BFU-E cells; assay: Small RNA (miRNA) sequencing of BFU-E cells cultured 4 hours with or without Dex; details: 100 nM Dex
Source text: FIGS. 2A-2B. The effect of glucocorticoids on miRNA and mRNA expression in BFU-E cells determined by next generation sequencing. […] Both mRNAs and miRNAs were subjected to Illumina deep sequencing. […] (B) A plot similar to that in A for expression of individual mRNAs. mRNA expression was normalized using the RPKM method, which determines the relative expression of each gene to all expressed genes by giving each gene an RPKM count (number of uniquely aligning reads per kb exon per million total reads).
B) Percent of total miRNA expression of the 20 highest expressed miRNAs. C) Percent of total miRNA expression of the 20 highest expressed miRNA-families.
Differences in miRNA expression were determined as described previously (Baek et al., 2008). […] Since several miRNAs contain the same seed sequence and therefore target the same group of mRNAs we also compared changes in expression of miRNA families.
Small RNA sequencing was performed essentially as described (Grimson et al., 2008). […] The adaptor sequence was stripped and aligned to mouse NCBI build 37 (mm9) using ELAND. Reads mapping to the known microRNA hairpins were used for downstream analysis. Reads mapping to miRNA with more than one known copy in the genome were divided equally between the different loci. miRNA analysis methods to compute miRNA expression counts were derived from previously published methods (Baek et al., 2008).

[2] = CD24a 20% high cells, 100 nM Dex
[3] = CD71 20% high cells, 100 nM Dex
[4] = CD71 and CD24a 20% high cells (n = 1), line marked +
[5] = sorted CD71 20% high cells, with Dex

C[C@@H]1C[C@H]2[C@@H]3CCC4=CC(=O)C=C[C@]4(C)[C@@]3(F)[C@@H](O)C[C@]2(C)[C@@]1(O)C(=O)CO [Dex, dexamethasone]
Erythroblasts generated by individual BFU-E cells (BFU-E cells; day 8, 100 nM Dex): more than 300,000 erythroblasts
Cell divisions performed by some BFU-E cells (BFU-E cells; in 8 days, 100 nM Dex): more than 18 cell divisions
Additional cell divisions allowed (BFU-E cells; single cell level, 100 nM Dex versus without Dex): more than 6 cell divisions
CFU-G/M/Meg colonies (CFU-E cells; [2]): 0.3 (±0.3) colonies per 1000 plated cells
GEMM colonies (CFU-E cells; [2]): 0 colonies per 1000 plated cells
large BFU-E colonies (CFU-E cells; [2]): 0.4 (±2) colonies per 1000 plated cells
small BFU-E colonies (CFU-E cells; [2]): 15 (±2) colonies per 1000 plated cells
CFU-E colonies (CFU-E cells; [3]): 565 (±120) colonies per 1000 plated cells
CFU-G/M/Meg colonies (CFU-E cells; [3]): 0 colonies per 1000 plated cells
GEMM colonies (CFU-E cells; [3]): 0 colonies per 1000 plated cells
large BFU-E colonies (CFU-E cells; [3]): 0 colonies per 1000 plated cells
small BFU-E colonies (CFU-E cells; [3]): 17 (±31) colonies per 1000 plated cells
CFU-E colonies (CFU-E cells; [4]): 526 colonies per 1000 plated cells
CFU-G/M/Meg colonies (CFU-E cells; [4]): 0 colonies per 1000 plated cells
GEMM colonies (CFU-E cells; [4]): 0 colonies per 1000 plated cells
large BFU-E colonies (CFU-E cells; [4]): 1 colonies per 1000 plated cells
small BFU-E colonies (CFU-E cells; [4]): 29 colonies per 1000 plated cells
Cells forming early BFU-E-derived colonies (CFU-E cells; [5]): 0%
Cells forming late BFU-E-derived colonies (CFU-E cells; [5]): 1.7%
Cells forming single-CFU-E colonies (CFU-E cells; [5]): 57%
Increase in expression of the 100 highest expressed miRNAs [1]: ≤ 50%
Increase in miR-451 expression [1]: 49%
